Experimental data published in ChEMBL document CHEMBL1201862, “PubChem BioAssay data set” (2004).
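Cultured in 96-well plates, cells were exposed to test compound for 48 hours across five concentrations. GI50 is the concentration that inhibits growth by half.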 Activity calls are given as the source filed them. No stated cut-off is given here; in the data, active = GI50 up to about 1.1 µM and inactive = higher.

Key:
Assay in all cases: NCI tumour cell line growth inhibition, 48 h
[1] = system: 786-0
[2] = system: CCRF-CEM
[3] = system: COLO 205
[4] = system: DU-145
[5] = system: HCC 2998
[6] = system: Hs-578T
[7] = system: KM12
[8] = system: MDA-MB-231
[9] = system: MDA-MB-435
[10] = system: NCI-H226
[11] = system: NCI/ADR-RES
[12] = system: OVCAR-3
[13] = system: OVCAR-5
[14] = system: OVCAR-8
[15] = system: SF-539
[16] = system: SK-MEL-2
[17] = system: SK-MEL-5
[18] = system: SK-OV-3
[19] = system: SNB-75
[20] = system: UACC-257

Measured: GI50

CC(=O)OCC1OC(Nn2c(=O)[nH]c3ccccc3c2=O)C(OC(C)=O)C(OC(C)=O)C1OC(C)=O (stereo not given)
inactive: [1] > 100 µM | [2] 40.2 µM | [3] > 100 µM | [4] > 100 µM | [5] 15 µM | [6] > 100 µM | [7] > 100 µM | [8] > 100 µM | [9] > 100 µM | [10] > 100 µM | [11] > 100 µM | [12] > 100 µM | [13] > 100 µM | [14] > 100 µM | [15] > 100 µM | [16] > 100 µM | [17] > 100 µM | [18] > 100 µM | [19] > 100 µM | [20] 35.3 µM

O=C1CC(c2cccc(Cl)c2)n2cccc21 (stereo not given)
inactive: [1] > 100 µM | [2] > 100 µM | [3] > 100 µM | [4] > 100 µM | [5] 88.7 µM | [6] 31.8 µM | [7] 77.3 µM | [8] > 100 µM | [9] > 100 µM | [10] > 100 µM | [11] > 100 µM | [12] > 100 µM | [13] > 100 µM | [14] > 100 µM | [15] > 100 µM | [16] 37.8 µM | [18] > 100 µM | [19] 47.8 µM | [20] > 100 µM

CC(C)(CN1CCCCC1)C(=O)CC(SCCS(=O)(=O)O)c1ccccc1 (stereo not given)
inactive: [1] 11 µM | [2] 5.16 µM | [3] 13.6 µM | [4] 11.2 µM | [5] 23.3 µM | [6] 36.1 µM | [7] 18.5 µM | [8] 13.7 µM | [9] 11.3 µM | [10] 27.7 µM | [11] 13.4 µM | [12] 5.87 µM | [13] 11.6 µM | [14] 18.8 µM | [15] 12.6 µM | [16] 37.9 µM | [17] 16.3 µM | [18] 55 µM | [19] 20.4 µM

CCCCCC(C/C=N/N(C)C)C(O)(C(F)(F)F)C(F)(F)F (stereo not given)
inactive: [1] 35.9 µM | [2] 17.1 µM | [3] 16.3 µM | [4] 33.3 µM | [5] 35.1 µM | [6] 35.6 µM | [7] 36.3 µM | [8] 27.5 µM | [9] 31 µM | [10] 41.5 µM | [11] > 100 µM | [12] 9.31 µM | [13] 65.6 µM | [14] 41.5 µM | [15] 35.2 µM | [16] 25.9 µM | [17] 16.6 µM | [18] 33.9 µM | [19] 29 µM

CC(C)N1CC2CN(Cc3ccccc3)CC(C1)C2=O
inactive: [1] > 100 µM | [2] 89.1 µM | [3] > 100 µM | [4] > 100 µM | [5] > 100 µM | [6] > 100 µM | [7] > 100 µM | [8] > 100 µM | [9] > 100 µM | [10] > 100 µM | [11] > 100 µM | [12] > 100 µM | [13] > 100 µM | [14] > 100 µM | [15] > 100 µM | [16] > 100 µM | [18] > 100 µM | [19] > 100 µM | [20] > 100 µM

CCN(CC)CCN(/C(=N/c1ccccc1)N1CCOCC1)c1ccccc1
inactive: [1] > 100 µM | [2] > 100 µM | [3] 39.4 µM | [4] > 100 µM | [5] > 100 µM | [6] > 100 µM | [7] > 100 µM | [8] > 100 µM | [9] 28.8 µM | [10] > 100 µM | [11] > 100 µM | [12] > 100 µM | [14] > 100 µM | [15] > 100 µM | [16] > 100 µM | [17] > 100 µM | [18] > 100 µM | [19] > 100 µM | [20] > 100 µM
